From US20050137251A1, “Dexanabinol and dexanabinol analogs regulate inflammation related genes” (priority 2002, published 2005)
pIC50: −log10 of the molar value.

Columns and labels:
[1] = test system: IL-2 gene expression; assay: IL-2 gene expression in MCAo mice brains; conditions: 5 mg/kg i.v., 18 hrs following MCAo
[2] = test system: LoVo colorectal cancer cells; assay: Tumor growth of in vivo implanted LoVo colorectal cancer cells; design: species or system mice; conditions: end of 8 weeks treatment
Method: Once we have shown that dexanabinol and its analogs were inhibitors of tumor cell proliferation in vitro, we wished to test if our compounds were as efficient in vivo. For this purpose the tumor cells LoVo (originating from a colorectal tumor; ATCC # CCL-229) were grown in DMEM containing 4.5 g/L glucose, 2 mM Glutamine, 1% Pen/Strep and 10% heat inactivated fetal calf serum. The cells were harvested using Trypsin-EDTA, the detached cells were rinsed in PBS, and counted. Predetermined amounts (1×10^6 cells in constant volume of […]) were injected s.c. above the right femoral joint in nude CD-1 male mice (average weight 20-25 gr, Harlan, Israel). Each treatment group was composed of at least 7 animals. Each animal was clinically monitored daily. The growth of the tumor was also monitored during the daily visits but actual measurements were recorded once a week. When tumors reach the appropriate size, animals are treated with either vehicle, 5 ml/kg/day, or with our test compounds, in the range of 2.5 to 10 mg/kg/day.
Thirty-six out of the 40 implanted mice developed a visible tumor within 5 to 6 weeks from tumor implantation. All animals were treated first on the 36th-42nd day of tumor implantation and the treatment lasted 8 weeks. One animal died in each treatment group between the 5th and the 7th week of treatment. The results are expressed as percent of tumor growth at the various days of the treatment as compared to baseline day 1. The results are depicted in FIG. 7 where we can observe that the efficacy of dexanabinol is inversely proportional to its dose in the range tested. 2.5 mg/kg (▪) seems more efficient than 5 mg/kg (▴), itself better than 10 mg/kg (x), which has very little effect, if at all, as compared to vehicle (--♦--). By the end of the treatment, 2.5 mg/kg dexanabinol reduced the tumor growth by 89%, 5 mg/kg by 61% and 10 mg/kg by 21%.

[3] = biological target: recombinant COX-2 (Homo sapiens, UniProt P35354); assay: In vitro enzymatic activity of recombinant COX-2 (PGF2α EIA); type: biochemical; conditions: purified COX-2, test compounds up to 10 μM, 5 min preincubation, substrate AA
recombinant COX-2, sequence (P35354 18-604): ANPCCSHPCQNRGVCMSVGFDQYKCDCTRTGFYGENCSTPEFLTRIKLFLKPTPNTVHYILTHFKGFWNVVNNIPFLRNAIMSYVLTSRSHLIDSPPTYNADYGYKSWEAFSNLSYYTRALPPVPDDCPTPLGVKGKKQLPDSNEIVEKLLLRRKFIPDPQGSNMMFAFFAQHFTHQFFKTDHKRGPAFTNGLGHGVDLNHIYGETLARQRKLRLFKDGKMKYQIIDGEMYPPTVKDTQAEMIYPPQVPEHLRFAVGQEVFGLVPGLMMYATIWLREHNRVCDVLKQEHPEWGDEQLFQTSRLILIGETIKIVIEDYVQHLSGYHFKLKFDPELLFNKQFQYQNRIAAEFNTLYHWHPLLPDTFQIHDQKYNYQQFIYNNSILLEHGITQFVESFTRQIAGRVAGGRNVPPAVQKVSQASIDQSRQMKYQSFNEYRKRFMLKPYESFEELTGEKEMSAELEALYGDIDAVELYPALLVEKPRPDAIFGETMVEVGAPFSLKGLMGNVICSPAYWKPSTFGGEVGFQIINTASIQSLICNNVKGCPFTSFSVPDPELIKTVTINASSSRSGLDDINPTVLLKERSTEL

[4] = test system: COX-2 gene expression; assay: COX-2 gene expression in LPS i.c.v. injected mice brains; type: in vivo; conditions: 20 mg/kg i.p., whole brain 6 hours after 100 ng LPS i.c.v.
[5] = test system: Panc-1; assay: Panc-1 pancreatic tumor cell proliferation (crystal violet); type: cell-based; conditions: Homo sapiens, 24 hours, read-out: Inhibition of Panc-1 cells proliferation
Method: (§1) Cells from several tumor-derived cell lines are tested for their proliferation capacity in presence of our test compounds. Pancreatic tumor cell lines were obtained from ATCC. Panc-1 (ATCC # CRL-1469) were cultured in DMEM supplemented with 4 mM Glutamine, 4.5 g/L glucose, 1.5 g/L bicarbonate, antibiotics (penicillin, nystatin and streptomycin) and 10% heat inactivated fetal calf serum. Aspc-1 (ATCC # CRL-1682) were cultured in RPMI supplemented with 2 mM Glutamine, 10 mM HEPES, 1 mM sodium pyruvate, 4.5 g/L glucose, 1.5 g/L bicarbonate, antibiotics (penicillin, nystatin and streptomycin) and 20% heat inactivated fetal calf serum. Cells were seeded in a 24 well plate (10^5 cells/ml/well) and grown overnight. The cells are incubated with the test compounds (1-100 μM) or vehicle (0.1% DMSO final concentration). Cell viability was determined 24 hours later using standard crystal violet staining. The culture medium was removed from the wells and the cells were fixed by adding 1 ml/well of 2% formaldehyde in PBS for 10 minutes. […] The plates were agitated for 15 minutes at room temperature and 100 μl were transferred in duplicate to a 96 well plate for reading. Optical density (OD) of the cells was measured at 620 nm in an ELISA reader and results are expressed as % viable cells. Absorbance of untreated cells is recorded as 100%.

[6] = test system: IL-2 secretion; assay: IL-2 secretion (ELISA) in activated Jurkat T cells; type: cell-based; conditions: Homo sapiens, supernatant 24 hours after activation, read-out: IC50 for inhibition of IL-2 secretion
Source text: The technique used to quantify the amount of a given protein in a liquid sample, either tissue culture supernatant or body fluid, is based on Enzyme Linked ImmunoSorbent Assay (ELISA) methodology. Either commercially available or established in house, the assay is based on the capture of the protein of interest by specific antibodies bound to the bottom of an ELISA plate well. Unbound material is washed away, the captured protein is then exposed to a secondary antibody generally labeled with horseradish peroxidase (HRP) or alkaline phosphatase (ALP). Again the unbound material is washed away, the samples are then incubated with the appropriate substrate yielding a colorimetric reaction. The reaction is stopped and reading is carried out in a spectrophotometer at the appropriate wavelength. […] Concentration of the protein in the sample is calculated from the standard curve. […]
In parallel, the supernatant from each well was collected 24 hours after the activation and analyzed for the presence of secreted IL-2 by ELISA. […] The absorbance measured at 450 nm is proportional to the concentration of IL-2 in the sample or standard. A standard curve is obtained by plotting the concentrations of recombinant IL-2 standards versus their absorbances. The IL-2 concentrations in experimental samples are then determined using the standard curve.

[7] = test system: Aspc-1; assay: Aspc-1 pancreatic tumor cell proliferation (crystal violet); type: cell-based; conditions: up to 15 μM, 24 hours
Method: as §1

[8] = test system: IL-10 gene expression; assay: IL-10 gene expression in MCAo mice brains; conditions: 5 mg/kg i.v., 18 hours of MCAo

With `CCCCCCC(C)(C)c1cc(O)c2c(c1)OC(C)(C)[C@H]1CC=C(CO)C[C@H]21` [dexanabinol, 1,1-dimethylheptyl-(3S,4S)-7-hydroxy-Δ^6-tetrahydrocannabinol] as the compound, how does the “Reduction of IL-2 gene activation vs vehicle” value [1] read?
Its value is 177%.

What about the “Reduction of tumor growth” value ([2]; 2.5 mg/kg/day) of the same compound?
Its value is 89%.

And the “Reduction of tumor growth” value ([2]; 5 mg/kg/day)?
Its value is 61%.

What about the “Reduction of tumor growth” value ([2]; 10 mg/kg/day) of the same compound?
Its value is 21%.

What about the “Inhibition of COX-2 enzymatic activity” value [3] of the same compound?
Its value is “no inhibitory effect”.

What about the “Reduction in the level of COX-2 activation” value [4] of the same compound?
Its value is 53%.

What about the inhibition at 15 µM [5] of the same compound?
Its inhibition at 15 µM is 26%.

And the pIC50 [6]?
The pIC50 was 5.10.

What about the “Effect on Aspc-1 proliferation” value [7] of the same compound?
The value was “not affected”.

And the “Further increase of IL-10 gene expression vs vehicle” value [8]?
Its value is 4.4 fold.
